# Key:
# Assay type in all cases: in vivo
# Veronica (Vero) = assay: Post-emergence herbicidal action (Example B2); set-up: key: 1-9 scale: 1 = total damage, 9 = no action; conditions: 1000 g of active compound per ha; post-emergence spray at 2- to 3-leaf stage; evaluated after 2 to 3 weeks; scale 1=total damage, 9=no action
# Protocol: (§1) Monocotyledonous and dicotyledonous test plants are sown in standard soil in pots. When the test plants are at the 2- to 3-leaf stage, the test compounds, in the form of an aqueous suspension (prepared from a wettable powder (Example F3, b) according to WO 97/34485) or in the form of an emulsion (prepared from an emulsifiable concentrate (Example F1, c) according to WO 97/34485), are applied by spraying, in an optimum concentration (500 litres of water per ha). The test plants are then grown on in a greenhouse under optimum conditions. After a test duration of 2 to 3 weeks, the test is evaluated in accordance with a scale of nine ratings (1=total damage, 9=no action). Ratings of from 1 to 4 (especially from 1 to 3) indicate good to very good herbicidal action. Test plants. Panicum (Pani), Euphorbia (Euph), Abutilon (Abut), Amaranthus (Amara), Stellaria (Stell), Veronica (Vero).
# Euphorbia (Euph) [1] = assay: Post-emergence herbicidal action (Example B2); set-up: key: 1=total damage; 9=no action; Ratings of from 1 to 4 (especially from 1 to 3) indicate good to very good herbicidal action; conditions: 1000 g of active compound per ha; post-emergence spray at 2- to 3-leaf stage; evaluated after 2 to 3 weeks; scale 1=total damage, 9=no action
# Protocol: as §1
# Panicum (Pani) [2] = assay: Post-emergence herbicidal action (Example B2); set-up: key: 1=total damage; 9=no action; Ratings of from 1 to 4 (especially from 1 to 3) indicate good to very good herbicidal action; conditions: 1000 g of active compound per ha; post-emergence spray at 2- to 3-leaf stage; evaluated after 2 to 3 weeks; scale 1=total damage, 9=no action
# Protocol: as §1
# Abutilon (Abut) [3] = assay: Post-emergence herbicidal action (Example B2); set-up: key: 1=total damage; 9=no action; Ratings of from 1 to 4 (especially from 1 to 3) indicate good to very good herbicidal action; conditions: 1000 g of active compound per ha; post-emergence spray at 2- to 3-leaf stage; evaluated after 2 to 3 weeks; scale 1=total damage, 9=no action
# Protocol: as §1
# Amaranthus (Amara) = assay: Post-emergence herbicidal action (Example B2); set-up: key: 1=total damage; 9=no action; Ratings of from 1 to 4 (especially from 1 to 3) indicate good to very good herbicidal action; conditions: 1000 g of active compound per ha; post-emergence spray at 2- to 3-leaf stage; evaluated after 2 to 3 weeks; scale 1=total damage, 9=no action
# Protocol: as §1
# Stellaria (Stell) [4] = assay: Post-emergence herbicidal action (Example B2); set-up: key: 1=total damage; 9=no action; Ratings of from 1 to 4 (especially from 1 to 3) indicate good to very good herbicidal action; conditions: 1000 g of active compound per ha; post-emergence spray at 2- to 3-leaf stage; evaluated after 2 to 3 weeks; scale 1=total damage, 9=no action
# Protocol: as §1
# Euphorbia (Euph) [5] = assay: Pre-emergence herbicidal action (Example B1); set-up: key: 1=total damage; 9=no action; Ratings of from 1 to 4 (especially from 1 to 3) indicate good to very good herbicidal action; conditions: 1000 g of active compound per ha; sprayed immediately after sowing; evaluated after 4 weeks; scale of nine ratings (1=total damage, 9=no action)
# Protocol: (§2) Monocotyledonous and dicotyledonous test plants are sown in standard soil in pots. Immediately after sowing, the test compounds, in the form of an aqueous suspension (prepared from a wettable powder (Example F3, b) according to WO 97/34485) or in the form of an emulsion (prepared from an emulsifiable concentrate (Example F1, c) according to WO 97/34485), are applied by spraying, in an optimum concentration (500 litres of water per ha). The test plants are then grown in a greenhouse under optimum conditions. After a test duration of 4 weeks, the test is evaluated in accordance with a scale of nine ratings (1=total damage, 9=no action). Ratings of from 1 to 4 (especially from 1 to 3) indicate good to very good herbicidal action. Test plants: Panicum (Pani), Digitaria (Digit), Euphorbia (Euph), Sida, Abutilon (Abut), Amaranthus (Amar), Chenopodium (Cheno), Stellaria (Stell).
# Panicum (Pani) [6] = assay: Pre-emergence herbicidal action (Example B1); set-up: key: 1=total damage; 9=no action; Ratings of from 1 to 4 (especially from 1 to 3) indicate good to very good herbicidal action; conditions: 1000 g of active compound per ha; sprayed immediately after sowing; evaluated after 4 weeks; scale of nine ratings (1=total damage, 9=no action)
# Protocol: as §2
# Abutilon (Abut) [7] = assay: Pre-emergence herbicidal action (Example B1); set-up: key: 1=total damage; 9=no action; Ratings of from 1 to 4 (especially from 1 to 3) indicate good to very good herbicidal action; conditions: 1000 g of active compound per ha; sprayed immediately after sowing; evaluated after 4 weeks; scale of nine ratings (1=total damage, 9=no action)
# Protocol: as §2
# Chenopodium (Cheno) = assay: Pre-emergence herbicidal action (Example B1); set-up: key: 1=total damage; 9=no action; Ratings of from 1 to 4 (especially from 1 to 3) indicate good to very good herbicidal action; conditions: 1000 g of active compound per ha; sprayed immediately after sowing; evaluated after 4 weeks; scale of nine ratings (1=total damage, 9=no action)
# Protocol: as §2
# Stellaria (Stell) [8] = assay: Pre-emergence herbicidal action (Example B1); set-up: key: 1=total damage; 9=no action; Ratings of from 1 to 4 (especially from 1 to 3) indicate good to very good herbicidal action; conditions: 1000 g of active compound per ha; sprayed immediately after sowing; evaluated after 4 weeks; scale of nine ratings (1=total damage, 9=no action)
# Protocol: as §2
# Sida = assay: Pre-emergence herbicidal action (Example B1); set-up: key: 1=total damage; 9=no action; Ratings of from 1 to 4 (especially from 1 to 3) indicate good to very good herbicidal action; conditions: 1000 g of active compound per ha; sprayed immediately after sowing; evaluated after 4 weeks; scale of nine ratings (1=total damage, 9=no action)
# Protocol: as §2
# Digitaria (Digit) = assay: Pre-emergence herbicidal action (Example B1); set-up: key: 1=total damage; 9=no action; Ratings of from 1 to 4 (especially from 1 to 3) indicate good to very good herbicidal action; conditions: 1000 g of active compound per ha; sprayed immediately after sowing; evaluated after 4 weeks; scale of nine ratings (1=total damage, 9=no action)
# Protocol: as §2
# Amaranthus (Amar) = assay: Pre-emergence herbicidal action (Example B1); set-up: key: 1=total damage; 9=no action; Ratings of from 1 to 4 (especially from 1 to 3) indicate good to very good herbicidal action; conditions: 1000 g of active compound per ha; sprayed immediately after sowing; evaluated after 4 weeks; scale of nine ratings (1=total damage, 9=no action)
# Protocol: as §2
SMILES,"Post-emergence herbicidal action rating, Vero (Veronica (Vero))","Post-emergence herbicidal action rating, Euph (Euphorbia (Euph) [1])","Post-emergence herbicidal action rating, Pani (Panicum (Pani) [2])","Post-emergence herbicidal action rating, Abut (Abutilon (Abut) [3])","Post-emergence herbicidal action rating, Amar (Amaranthus (Amara))","Post-emergence herbicidal action rating, Stell (Stellaria (Stell) [4])","Pre-emergence herbicidal action rating, Euph (Euphorbia (Euph) [5])","Pre-emergence herbicidal action rating, Pani (Panicum (Pani) [6])","Pre-emergence herbicidal action rating, Abut (Abutilon (Abut) [7])","Pre-emergence herbicidal action rating, Cheno (Chenopodium (Cheno))","Pre-emergence herbicidal action rating, Stell (Stellaria (Stell) [8])","Pre-emergence herbicidal action rating, Sida (Sida)","Pre-emergence herbicidal action rating, Digit (Digitaria (Digit))","Pre-emergence herbicidal action rating, Amar (Amaranthus (Amar))"
N#CCc1cccc(C#CCOc2ncc(Br)cn2)c1 [Compound 7.006],5,1,5,3,2,4,1,2,2,1,1,,,
N#CCc1ccc(F)c(C#CCOc2ncc(Cl)cn2)c1 [7.028],2,1,,,1,1,,,,,,,,
N#CCc1cccc(C#CCOc2ncc(Cl)cn2)c1 [7.021],3,1,2,2,1,3,,,,,,,,
N#CCc1cc(C#CCOc2ncc(Cl)cn2)ccc1F [Compound 7.022],2,1,2,,1,3,3,1,1,3,1,1,1,1
COc1nccnc1OCC#Cc1cccc(CC#N)c1 [Compound 1.048],2,1,4,3,1,2,1,4,1,1,1,1,2,1
"COc1nc(Cl)cnc1OCC#Cc1cccc(CC#N)c1 [Compound 1.041, {3-[3-(5-chloro-3-methoxy-pyrazin-2-yloxy)-prop-1-ynyl]-phenyl}-acetonitrile]",2,1,2,2,2,2,1,1,1,1,1,1,1,1
"COc1cncnc1OCC#Cc1cccc(CC#N)c1 [Compound 5.025, {3-[3-(5-methoxy-pyrimidin-4-yloxy)-prop-1-ynyl]-phenyl}-acetonitrile]",4,1,2,1,4,1,,,,,,,,
COc1nc(C)ncc1OCC#Cc1cccc(CC#N)c1 [4.033],4,2,2,3,3,2,,,,,,,,
N#CCc1cc(C#CCOc2ncc(Cl)cn2)c(F)cc1F [7.031],2,3,2,3,2,3,,,,,,,,
N#CCc1cc(C#CCOc2ncc(F)cn2)ccc1F [7.027],4,2,1,4,2,3,,,,,,,,
N#CCc1cccc(C#CCOc2ncc(F)cn2)c1 [7.008],2,2,2,2,2,2,,,,,,,,
